Patent US9918915B2, “Personal care compositions providing enhanced cooling sensation” (THE PROCTER & GAMBLE COMPANY, priority 2007, dated 2018)
Each block holds one compound with its values, some of them ahead of it.

Columns and labels:
panelists = assay: Sensory evaluation of cooling sensation after brushing with coolant dentifrice followed by aqueous rinse with or without calcium; type: in vivo, human; set-up: key to Cooling Sensation Score: 0 = no cooling, 60 = intense cooling; 7.5 = definite cooling; conditions: for Cooling Sensation Score: 0-60 scale
Protocol: Sensory evaluation studies of coolant activity were conducted using a methodology patterned after the techniques described in M. C. Meilgaard, et al., Sensory Evaluation Techniques, 4th Ed. (2007). In one study, a panel of 11 trained sensory experts evaluated cooling sensation experienced after brushing with a dentifrice containing coolant(s) followed by rinsing with an aqueous rinse containing a calcium ion source. Panelists brushed teeth with 1.5 grams of a test dentifrice (containing coolant) or control (no coolant) and then expectorated. After brush expectoration, panelists evaluated cooling intensity, assigning a number between 0 (no cooling) to 60 (intense cooling). Panelists then rinsed mouth with 15 ml. of an aqueous rinse (with or without calcium) and expectorated. After rinse expectoration, panelists evaluated cooling intensity according to the same 0 to 60 scale. Evaluations were conducted at 5, 15, 30, 45, 60 minute, etc. time points. At each evaluation, panelists were instructed to breathe in through pursed lips and evaluate overall cooling sensation. In this test, a numerical score of 7.5 indicates meaningful or definite cooling.

human TRPM8 = human TRPM8 (Homo sapiens, UniProt Q7Z2W7); assay: FLIPR intracellular calcium flux (Fluo-4) in HEK cells stably transfected with human TRPM8; conditions: for % Change from G-180 value: pre-treatment with 100 uM test compound + 6.25 uM G-180 vs 6.25 uM G-180 alone, calcium fluorescence; for Average Fluorescence (n = 3): HEK cells with human TRPM8, Fluo-4
human TRPM8, sequence (Q7Z2W7 whole entry): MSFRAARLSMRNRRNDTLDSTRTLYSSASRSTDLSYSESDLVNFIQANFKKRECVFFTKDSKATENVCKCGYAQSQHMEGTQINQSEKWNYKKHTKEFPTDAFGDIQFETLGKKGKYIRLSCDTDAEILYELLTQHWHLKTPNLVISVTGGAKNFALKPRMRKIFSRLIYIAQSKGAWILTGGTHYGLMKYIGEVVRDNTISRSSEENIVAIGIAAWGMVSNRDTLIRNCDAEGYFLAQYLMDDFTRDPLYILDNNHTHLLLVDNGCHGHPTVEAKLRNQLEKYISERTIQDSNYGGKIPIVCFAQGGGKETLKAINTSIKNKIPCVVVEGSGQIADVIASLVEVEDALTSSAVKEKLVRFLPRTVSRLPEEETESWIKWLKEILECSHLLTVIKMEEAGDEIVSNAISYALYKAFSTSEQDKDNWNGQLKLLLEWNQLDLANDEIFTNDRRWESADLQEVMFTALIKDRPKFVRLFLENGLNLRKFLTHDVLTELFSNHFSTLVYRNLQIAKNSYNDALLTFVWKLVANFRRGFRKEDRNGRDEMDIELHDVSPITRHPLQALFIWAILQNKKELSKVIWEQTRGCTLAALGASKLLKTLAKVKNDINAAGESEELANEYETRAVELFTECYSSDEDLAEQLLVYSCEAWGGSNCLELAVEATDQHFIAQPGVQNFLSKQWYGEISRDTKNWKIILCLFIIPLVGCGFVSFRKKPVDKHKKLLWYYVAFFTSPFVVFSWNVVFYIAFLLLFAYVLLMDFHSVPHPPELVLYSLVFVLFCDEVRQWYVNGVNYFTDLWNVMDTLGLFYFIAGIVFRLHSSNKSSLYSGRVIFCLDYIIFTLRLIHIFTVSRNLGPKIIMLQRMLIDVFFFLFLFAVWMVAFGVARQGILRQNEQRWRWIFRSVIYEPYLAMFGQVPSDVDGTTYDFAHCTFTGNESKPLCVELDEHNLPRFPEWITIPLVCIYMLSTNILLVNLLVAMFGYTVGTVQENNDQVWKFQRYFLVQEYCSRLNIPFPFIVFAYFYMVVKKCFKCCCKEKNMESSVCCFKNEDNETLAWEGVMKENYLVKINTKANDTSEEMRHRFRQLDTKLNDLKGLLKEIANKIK

[1] = 1500 ppm coolant in paste, rinse Ca+2 0 ppm, 0 min.
[2] = 1500 ppm coolant in paste, rinse Ca+2 0 ppm, 5 min.
[3] = 1500 ppm coolant in paste, rinse Ca+2 0 ppm, 15 min.
[4] = 1500 ppm coolant in paste, rinse Ca+2 0 ppm, 30 min.
[5] = 1500 ppm coolant in paste, rinse Ca+2 0 ppm, 45 min.
[6] = 1500 ppm coolant in paste, rinse Ca+2 0 ppm, 60 min.
[7] = 1000 ppm coolant in paste, rinse Ca+2 0 ppm, 0 min.
[8] = 1000 ppm coolant in paste, rinse Ca+2 0 ppm, 5 min.
[9] = 1000 ppm coolant in paste, rinse Ca+2 0 ppm, 15 min.
[10] = 1000 ppm coolant in paste, rinse Ca+2 0 ppm, 30 min.
[11] = 1000 ppm coolant in paste, rinse Ca+2 0 ppm, 45 min.
[12] = 1000 ppm coolant in paste, rinse Ca+2 0 ppm, 60 min.
[13] = pre-treatment with 100 uM test compound for 30 minutes, then 6.25 uM G-180
[14] = 800 ppm coolant in paste, rinse Ca+2 0 ppm, 0 min.
[15] = 800 ppm coolant in paste, rinse Ca+2 0 ppm, 5 min.
[16] = 800 ppm coolant in paste, rinse Ca+2 0 ppm, 15 min.
[17] = 800 ppm coolant in paste, rinse Ca+2 0 ppm, 30 min.
[18] = 800 ppm coolant in paste, rinse Ca+2 0 ppm, 45 min.
[19] = 800 ppm coolant in paste, rinse Ca+2 0 ppm, 60 min.
[20] = 800 ppm coolant in paste, rinse Ca+2 723 ppm, 0 min.
[21] = 800 ppm coolant in paste, rinse Ca+2 723 ppm, 5 min.
[22] = 800 ppm coolant in paste, rinse Ca+2 723 ppm, 15 min.
[23] = 800 ppm coolant in paste, rinse Ca+2 723 ppm, 30 min.
[24] = 800 ppm coolant in paste, rinse Ca+2 723 ppm, 45 min.
[25] = 800 ppm coolant in paste, rinse Ca+2 723 ppm, 60 min.

Compound: CC(C)[C@@H]1CC[C@@H](C)CC12OCC(CO)O2 (some centres unmarked) [MGA, menthone glycerol acetal]
Cooling Sensation Score (panelists; [1]): 16.5
Cooling Sensation Score (panelists; [2]): 13.6
Cooling Sensation Score (panelists; [3]): 4.4
Cooling Sensation Score (panelists; [4]): 0
Cooling Sensation Score (panelists; [5]): 0
Cooling Sensation Score (panelists; [6]): 0
Cooling Sensation Score (panelists; 1500 ppm coolant in paste, rinse Ca+2 723 ppm, 0 min.): 20.7
Cooling Sensation Score (panelists; 1500 ppm coolant in paste, rinse Ca+2 723 ppm, 5 min.): 18.3
Cooling Sensation Score (panelists; 1500 ppm coolant in paste, rinse Ca+2 723 ppm, 15 min.): 7.0
Cooling Sensation Score (panelists; 1500 ppm coolant in paste, rinse Ca+2 723 ppm, 30 min.): 1.4
Cooling Sensation Score (panelists; 1500 ppm coolant in paste, rinse Ca+2 723 ppm, 45 min.): 0
Cooling Sensation Score (panelists; 1500 ppm coolant in paste, rinse Ca+2 723 ppm, 60 min.): 0
Calcium enhancing effect on cooling (panelists; 1500 ppm level of coolant in dentifrice): calcium enhancing effect was also observed
Potentiating effect of calcium ions on cooling intensity and duration (panelists; at the levels of coolant and calcium used): particularly evident

Compound: CC1CCC(C(C)C)C(OC(=O)C(C)O)C1 (centres unmarked) [Menthyl Lactate, menthyl lactate]
Cooling Sensation Score (panelists; [7]): 23.0
Cooling Sensation Score (panelists; [8]): 12.7
Cooling Sensation Score (panelists; [9]): 2.3
Cooling Sensation Score (panelists; [10]): 0
Cooling Sensation Score (panelists; [11]): 0
Cooling Sensation Score (panelists; [12]): 0
Cooling Sensation Score (panelists; 1000 ppm coolant in paste, rinse Ca+2 723 ppm, 0 min.): 23.5
Cooling Sensation Score (panelists; 1000 ppm coolant in paste, rinse Ca+2 723 ppm, 5 min.): 12.4
Cooling Sensation Score (panelists; 1000 ppm coolant in paste, rinse Ca+2 723 ppm, 15 min.): 2.2
Cooling Sensation Score (panelists; 1000 ppm coolant in paste, rinse Ca+2 723 ppm, 30 min.): 0
Cooling Sensation Score (panelists; 1000 ppm coolant in paste, rinse Ca+2 723 ppm, 45 min.): 0
Cooling Sensation Score (panelists; 1000 ppm coolant in paste, rinse Ca+2 723 ppm, 60 min.): 0

Compound: CCNC(=O)C1CC(C)CCC1C(C)C (centres unmarked) [WS-3, N-ethyl-ρ-menthan-3-carboxamide]
Cooling Sensation Score (panelists; [7]): 26.2
Cooling Sensation Score (panelists; [8]): 25.4
Cooling Sensation Score (panelists; [9]): 11.3
Cooling Sensation Score (panelists; [10]): 0
Cooling Sensation Score (panelists; [11]): 0
Cooling Sensation Score (panelists; [12]): 0
Cooling Sensation Score (panelists; 1000 ppm coolant in paste, rinse Ca+2 271 ppm, 0 min.): 23.8
Cooling Sensation Score (panelists; 1000 ppm coolant in paste, rinse Ca+2 271 ppm, 5 min.): 21.4
Cooling Sensation Score (panelists; 1000 ppm coolant in paste, rinse Ca+2 271 ppm, 15 min.): 10.8
Cooling Sensation Score (panelists; 1000 ppm coolant in paste, rinse Ca+2 271 ppm, 30 min.): 2.4
Cooling Sensation Score (panelists; 1000 ppm coolant in paste, rinse Ca+2 271 ppm, 45 min.): 0
Cooling Sensation Score (panelists; 1000 ppm coolant in paste, rinse Ca+2 271 ppm, 60 min.): 0
Cooling Sensation Score (panelists; 1000 ppm coolant in paste, rinse Ca+2 542 ppm, 0 min.): 23.6
Cooling Sensation Score (panelists; 1000 ppm coolant in paste, rinse Ca+2 542 ppm, 5 min.): 14.0
Cooling Sensation Score (panelists; 1000 ppm coolant in paste, rinse Ca+2 542 ppm, 15 min.): 0
Cooling Sensation Score (panelists; 1000 ppm coolant in paste, rinse Ca+2 542 ppm, 30 min.): 0
Cooling Sensation Score (panelists; 1000 ppm coolant in paste, rinse Ca+2 542 ppm, 45 min.): 0
Cooling Sensation Score (panelists; 1000 ppm coolant in paste, rinse Ca+2 542 ppm, 60 min.): 0
Cooling Sensation Score (panelists; [1]): 18.1
Cooling Sensation Score (panelists; [2]): 29.4
Cooling Sensation Score (panelists; [3]): 12.7
Cooling Sensation Score (panelists; [4]): 0
Cooling Sensation Score (panelists; [5]): 0
Cooling Sensation Score (panelists; [6]): 0
Cooling Sensation Score (panelists; 1500 ppm coolant in paste, rinse Ca+2 271 ppm, 0 min.): 20.0
Cooling Sensation Score (panelists; 1500 ppm coolant in paste, rinse Ca+2 271 ppm, 5 min.): 29.8
Cooling Sensation Score (panelists; 1500 ppm coolant in paste, rinse Ca+2 271 ppm, 15 min.): 9.5
Cooling Sensation Score (panelists; 1500 ppm coolant in paste, rinse Ca+2 271 ppm, 30 min.): 1.1
Cooling Sensation Score (panelists; 1500 ppm coolant in paste, rinse Ca+2 271 ppm, 45 min.): 0
Cooling Sensation Score (panelists; 1500 ppm coolant in paste, rinse Ca+2 271 ppm, 60 min.): 0
Cooling Sensation Score (panelists; 1500 ppm coolant in paste, rinse Ca+2 542 ppm, 0 min.): 19.3
Cooling Sensation Score (panelists; 1500 ppm coolant in paste, rinse Ca+2 542 ppm, 5 min.): 23.7
Cooling Sensation Score (panelists; 1500 ppm coolant in paste, rinse Ca+2 542 ppm, 15 min.): 5.0
Cooling Sensation Score (panelists; 1500 ppm coolant in paste, rinse Ca+2 542 ppm, 30 min.): 2.7
Cooling Sensation Score (panelists; 1500 ppm coolant in paste, rinse Ca+2 542 ppm, 45 min.): 0
Cooling Sensation Score (panelists; 1500 ppm coolant in paste, rinse Ca+2 542 ppm, 60 min.): 0

Compound: CCOC(=O)CNC(=O)C1CC(C)CCC1C(C)C (centres unmarked) [WS-5, N-ethoxycarbonylmethyl-ρ-menthan-3-carboxamide]
Cooling Sensation Score (panelists; [14]): 29.2
Cooling Sensation Score (panelists; [15]): 22.4
Cooling Sensation Score (panelists; [16]): 8.3
Cooling Sensation Score (panelists; [17]): 1.0
Cooling Sensation Score (panelists; [18]): 0
Cooling Sensation Score (panelists; [19]): 0
Cooling Sensation Score (panelists; [20]): 30.8
Cooling Sensation Score (panelists; [21]): 22.2
Cooling Sensation Score (panelists; [22]): 8.4
Cooling Sensation Score (panelists; [23]): 2.2
Cooling Sensation Score (panelists; [24]): 0
Cooling Sensation Score (panelists; [25]): 0

Compound: CNC(=O)C(C)(C(C)C)C(C)C [WS-23, N,2,3-trimethyl-2-isopropylbutanamide]
Cooling Sensation Score (panelists; [14]): 15.4
Cooling Sensation Score (panelists; [15]): 7.4
Cooling Sensation Score (panelists; [16]): 3.0
Cooling Sensation Score (panelists; [17]): 0
Cooling Sensation Score (panelists; [18]): 0
Cooling Sensation Score (panelists; [19]): 0
Cooling Sensation Score (panelists; [20]): 18.8
Cooling Sensation Score (panelists; [21]): 4.9
Cooling Sensation Score (panelists; [22]): 1.0
Cooling Sensation Score (panelists; [23]): 0
Cooling Sensation Score (panelists; [24]): 0
Cooling Sensation Score (panelists; [25]): 0

The next lines start with the values.

% Change from G-180 value (human TRPM8): 0.66%
Average Fluorescence (n = 3) (human TRPM8; [13]): 17628.02
Compound: O=P([O-])([O-])OP(=O)([O-])OP(=O)([O-])[O-].[Na+].[Na+].[Na+].[Na+].[Na+] [Penta sodium triphosphate]

Average Fluorescence (n = 3) (human TRPM8; 100 uM test compound alone (direct effect on TRPM8)): 129.38
% Change from G-180 value (human TRPM8): 23.36%
% Change from G-180 value (human TRPM8; listed as Phytic Acid): 21.20%
% Change from G-180 value (human TRPM8; listed as phytic acid): 23.36%
Average Fluorescence (n = 3) (human TRPM8; [13]): 18382.62
Average Fluorescence (n = 3) (human TRPM8; pre-treatment with 100 uM test compound for 30 minutes, then 6.25 uM G-180, listed as Phytic Acid): 21178.86
Modulation of the G-180 activity at TRPM8 (human TRPM8; separate experiments using the same protocol, 100 uM + 6.25 uM G-180): positive modulation was confirmed
Compound: O=P(O)(O)O[C@H]1[C@H](OP(=O)(O)O)[C@@H](OP(=O)(O)O)[C@H](OP(=O)(O)O)[C@@H](OP(=O)(O)O)[C@H]1OP(=O)(O)O [Phytic acid, myo-inositol 1,2,3,4,5,6-hexakis (dihydrogen phosphate)]

% Change from G-180 value (human TRPM8): 3.22%
Average Fluorescence (n = 3) (human TRPM8; [13]): 18075.77
Compound: O=P([O-])(O)OP(=O)([O-])O.[Na+].[Na+] [Sodium acid pyrophosphate]

% Change from G-180 value (human TRPM8): 5.10%
Average Fluorescence (n = 3) (human TRPM8; [13]): 18404.83
Compound: CCCCCCCCCCCCOP(=O)([O-])[O-].[Na+].[Na+] [Sodium lauryl phosphate]

% Change from G-180 value (human TRPM8): 5.69%
Average Fluorescence (n = 3) (human TRPM8; [13]): 18508.43
Compound: O=P(O)(O)OP(=O)(O)OP(=O)(O)O [Sodium tripolyphosphate]
